Laboratory results from ChEMBL document CHEMBL4346762, “Design, synthesis and anticancer activity of constrained sphingolipid-phenoxazine/phenothiazine hybrid constructs targeting protein phosphatase 2A” (Bioorg Med Chem Lett, 2019).

Assays:
[1] = Inhibition of protein phosphatase 2A in mouse FL5.12 cells assessed as reduction in cell viability incubated for 48 hrs by propidium iodide staining based flow cytometric analysis; conditions: FL5.12, 48 h
[2] = test system: FL5.12; experiment: (§1) Inhibition of protein phosphatase 2A in mouse FL5.12 cells assessed as induction of surface nutrient transporter loss by measuring downregulation of CD98 expression level at 2.5 uM preincubated with PP2A inhibitor calyculin A for 60 mins followed by compound addition and measured after 2 hrs by flow cytometric analysis relative to control; format: cell-based; set-up: scale not given: the % may be the effect or the level left
[3] = test system: FL5.12; experiment: as §1, with “10” for “2.5”; format: cell-based; set-up: scale not given: the % may be the effect or the level left
[4] = test system: FL5.12; experiment: Induction of vacuolation in mouse FL5.12 cells assessed as vacuolation score at 2.5 uM preincubated with PP2A inhibitor calyculin A for 60 mins followed by compound addition and measured after 2 hrs by fluorescence microscopic method; format: functional
[5] = test system: FL5.12; experiment: Induction of vacuolation in mouse FL5.12 cells assessed as vacuolation score at 10 uM preincubated with PP2A inhibitor calyculin A for 60 mins followed by compound addition and measured after 2 hrs by fluorescence microscopic method; format: functional
[6] = test system: FL5.12; experiment: as §1, with “40” for “2.5”; format: cell-based; set-up: scale not given: the % may be the effect or the level left
[7] = test system: FL5.12; experiment: Induction of vacuolation in mouse FL5.12 cells assessed as vacuolation score at 40 uM preincubated with PP2A inhibitor calyculin A for 60 mins followed by compound addition and measured after 2 hrs by fluorescence microscopic method; format: functional
[8] = organism: Mus musculus; experiment: Ratio of IC50 for SH-BC-893 to IC50 for test compound for inhibition of protein phosphatase 2A in mouse FL5.12 cells assessed as reduction in cell viability incubated for 48 hrs by propidium iodide staining based flow cytometric analysis

With `CCCCCCCCc1ccc([C@H]2CCN[C@@H]2COCCCCc2cccnc2)cc1.Cl` the IC50 [1] was 2.1 µM, the Activity [2] was 40% and the Activity [3] was 64%. The Activity [4] was 12 and the Activity [5] was 11.
`CCCCCCCCc1ccc([C@H]2CCN[C@@H]2COCCCC(O)c2cccnc2)cc1.Cl` (some centres not stated) showed an IC50 [1] of 2.4 µM, an Activity [2] of 24% and an Activity [3] of 51%. The Activity [4] was 8 and the Activity [5] was 17.
For `CCCCCCCCc1ccc([C@H]2CCN[C@@H]2COCCCCCN2c3ccccc3Sc3ccccc32)cc1.Cl`, the IC50 [1] was 7.5 µM, the Activity [3] was -8% and the Activity [6] was 29%. It also gave an Activity [5] of 18 and an Activity [7] of 42.
`CCCCCCCCc1ccc([C@H]2CCN[C@@H]2COCCCN2c3ccccc3Oc3ccccc32)cc1.Cl` gave an IC50 [1] of 4.6 µM, an Activity [2] of 4% and an Activity [3] of 27%. For the same compound, the Activity [4] was 2, the Activity [5] was 23 and the Ratio IC50 [8] was 2 to 3.
`O=S(=O)(N[C@@H]1CCC[C@H](N2c3ccccc3Oc3ccccc32)[C@H]1O)c1ccc(OC(F)(F)F)cc1` gave an IC50 [1] of 15.2 µM, an Activity [3] of 7% and an Activity [6] of 31%. It also gave an Activity [5] of 0 and an Activity [7] of 11.
Work on `CCCCCCCCc1ccc([C@H]2CCN[C@@H]2CO)cc1.Cl` yielded an IC50 [1] of 1.8 µM, an Activity [2] of 32% and an Activity [3] of 69%. For the same compound, the Activity [4] was 46 and the Activity [5] was 60.
`CCCCCCCCc1ccc([C@H]2CCN[C@@H]2COCCCCN2c3ccccc3Oc3ccccc32)cc1.Cl` showed an IC50 [1] of 5.8 µM, an Activity [2] of 5% and an Activity [3] of 15%. For the same compound, the Activity [4] was 7, the Activity [5] was 15 and the Ratio IC50 [8] was 2 to 3.
`CCCCCCCCc1ccc([C@H]2CCN[C@@H]2COCCCC(O)c2cnc(OC)nc2OC)cc1.Cl` (some centres not stated) showed an IC50 [1] of 2.7 µM, an Activity [2] of 10% and an Activity [3] of 60%. It also gave an Activity [4] of 8 and an Activity [5] of 15.
Work on `CCCCCCCCc1ccc([C@H]2CCN[C@@H]2COCCCCCN2c3ccccc3Oc3ccccc32)cc1.Cl` yielded an IC50 [1] of 8.6 µM, an Activity [3] of -3% and an Activity [6] of 38%. It also gave an Activity [5] of 16 and an Activity [7] of 66.
`OCCN1CCN(CCCN2c3ccccc3Sc3ccc(Cl)cc32)CC1` [PERPHENAZINE] gave an IC50 [1] of 4.8 µM, an Activity [2] of 19% and an Activity [3] of 58%. For the same compound, the Activity [4] was 1 and the Activity [5] was 3.
